Data taken from PubChem BioAssay AID1963860 (Molecular Pharmacology Branch, DTP, NCI, 2024).

Tested on: CN0375-F725-PDC KRAS spheroid viability
Assay: Anticancer human tumor CN0375-F725-PDC patient-derived colon carcinoma cell line growth inhibition [KRAS2]
Conditions: spheroids with HUVEC and MSC; for IC50: curve of first compound; for viability, T/C: stronger effect = lower value
Outline: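 Combination screen of spheroid viability in tumor-cell co-cultures with endothelial (HUVEC) and mesenchymal stem cell stroma. Each agent was tested in half-log dilutions, topping at clinical Cmax or at 10 microM without a known Cmax.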

[1] = second compound 0.1 µM, first compound 0.0316 µM
[2] = second compound 0.1 µM, first compound 0.1 µM
[3] = second compound 0.316 µM, first compound 0.0316 µM
[4] = second compound 0.316 µM, first compound 0.1 µM
[5] = second compound 1 µM, first compound 0.0316 µM
[6] = second compound 1 µM, first compound 0.1 µM
[7] = second compound 3.16 µM, first compound 0.0316 µM
[8] = second compound 3.16 µM, first compound 0.1 µM
[9] = second compound 10 µM, first compound 0.0316 µM
[10] = second compound 10 µM, first compound 0.1 µM
[11] = second compound 0.1 µM, first compound 0.316 µM
[12] = second compound 0.1 µM, first compound 1 µM
[13] = second compound 0.1 µM, first compound 3.16 µM
[14] = second compound 0.1 µM, first compound 10 µM
[15] = second compound 0.316 µM, first compound 0.316 µM
[16] = second compound 0.316 µM, first compound 1 µM
[17] = second compound 0.316 µM, first compound 3.16 µM
[18] = second compound 0.316 µM, first compound 10 µM
[19] = second compound 1 µM, first compound 0.316 µM
[20] = second compound 1 µM, first compound 1 µM
[21] = second compound 1 µM, first compound 3.16 µM
[22] = second compound 1 µM, first compound 10 µM
[23] = second compound 3.16 µM, first compound 0.316 µM
[24] = second compound 3.16 µM, first compound 1 µM
[25] = second compound 3.16 µM, first compound 3.16 µM
[26] = second compound 3.16 µM, first compound 10 µM
[27] = second compound 10 µM, first compound 0.316 µM
[28] = second compound 10 µM, first compound 1 µM
[29] = second compound 10 µM, first compound 3.16 µM
[30] = second compound 10 µM, first compound 10 µM
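Note: spheroids exposed to agents for 7 days.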

SMILES	IC50 (second compound 0.1 µM) [nM]	IC50 (second compound 0.316 µM) [nM]	IC50 (second compound 1 µM) [nM]	IC50 (second compound 3.16 µM) [nM]	IC50 (second compound 10 µM) [nM]	viability, T/C [1] [%]	viability, T/C [2] [%]	viability, T/C [3] [%]	viability, T/C [4] [%]	viability, T/C [5] [%]	viability, T/C [6] [%]	viability, T/C [7] [%]	viability, T/C [8] [%]	viability, T/C [9] [%]	viability, T/C [10] [%]	viability, T/C [11] [%]	viability, T/C [12] [%]	viability, T/C [13] [%]	viability, T/C [14] [%]	viability, T/C [15] [%]	further results
CC(C)n1nc(-c2ccc3oc(N)nc3c2)c2c(N)ncnc21 + CNCc1ccccc1-c1csc(C(C)Nc2nc(C)nc3cc(OC)c(OC)cc23)c1	58	54	1.13	< 0.316	< 0.316	55.3	45.4	55.9	43.2	37.9	29	0.52	0.44	0.18	0.21						viability, T/C (second compound 0.1 µM, first compound 0.000316 µM): 99.7%; viability, T/C (second compound 0.1 µM, first compound 0.001 µM): 93.1%; viability, T/C (second compound 0.1 µM, first compound 0.00316 µM): 80%; viability, T/C (second compound 0.1 µM, first compound 0.01 µM): 67%; viability, T/C (second compound 0.316 µM, first compound 0.000316 µM): 91.1%; viability, T/C (second compound 0.316 µM, first compound 0.001 µM): 83.9%; viability, T/C (second compound 0.316 µM, first compound 0.00316 µM): 78.5%; viability, T/C (second compound 0.316 µM, first compound 0.01 µM): 67%; viability, T/C (second compound 1 µM, first compound 0.000316 µM): 66.2%; viability, T/C (second compound 1 µM, first compound 0.001 µM): 49.4%; viability, T/C (second compound 1 µM, first compound 0.00316 µM): 37.8%; viability, T/C (second compound 1 µM, first compound 0.01 µM): 47.7%; viability, T/C (second compound 3.16 µM, first compound 0.000316 µM): 0.35%; viability, T/C (second compound 3.16 µM, first compound 0.001 µM): 0.36%; viability, T/C (second compound 3.16 µM, first compound 0.00316 µM): 0.33%; viability, T/C (second compound 3.16 µM, first compound 0.01 µM): 0.28%; viability, T/C (second compound 10 µM, first compound 0.000316 µM): 0.13%; viability, T/C (second compound 10 µM, first compound 0.001 µM): 0.17%; viability, T/C (second compound 10 µM, first compound 0.00316 µM): 0.14%; viability, T/C (second compound 10 µM, first compound 0.01 µM): 0.15%
COc1cc(Nc2ncc3c(n2)-c2ccc(Cl)cc2C(c2c(F)cccc2OC)=NC3)ccc1C(=O)O + CNCc1ccccc1-c1csc(C(C)Nc2nc(C)nc3cc(OC)c(OC)cc23)c1	> 10000	> 10000	> 10000	< 31.6	< 31.6	101	95	96.8	93.1	58.2	54.7	0.72	0.93	0.31	0.48	93.5	90.8	89	75.9	88.4	viability, T/C [16]: 83.8%; viability, T/C [17]: 87.3%; viability, T/C [18]: 75.7%; viability, T/C [19]: 57.5%; viability, T/C [20]: 61%; viability, T/C [21]: 61.7%; viability, T/C [22]: 48.4%; viability, T/C [23]: 0.51%; viability, T/C [24]: 0.58%; viability, T/C [25]: 1.16%; viability, T/C [26]: 0.38%; viability, T/C [27]: 0.55%; viability, T/C [28]: 0.16%; viability, T/C [29]: 0.24%; viability, T/C [30]: 0.19%
COc1cc2nccc(Oc3ccc(NC(=O)C4(C(=O)Nc5ccc(F)cc5)CC4)cc3)c2cc1OC + CNCc1ccccc1-c1csc(C(C)Nc2nc(C)nc3cc(OC)c(OC)cc23)c1	3040	1230	< 31.6	< 31.6	< 31.6	98.2	94.4	93	97.6	45.5	42.6	0.22	0.26	0.14	0.13	85.6	76.3	44.4	53.7	72.7	viability, T/C [16]: 60.5%; viability, T/C [17]: 23%; viability, T/C [18]: 11.3%; viability, T/C [19]: 19.5%; viability, T/C [20]: 20.6%; viability, T/C [21]: 2.02%; viability, T/C [22]: 1.05%; viability, T/C [23]: 0.27%; viability, T/C [24]: 0.15%; viability, T/C [25]: 0.15%; viability, T/C [26]: 0.11%; viability, T/C [27]: 0.14%; viability, T/C [28]: 0.12%; viability, T/C [29]: 0.1%; viability, T/C [30]: 0.16%
